{"source": "paper PMC8231113", "about": "“Protein Secondary Structure Affects Glycan Clustering in Native Mass Spectrometry” (Life, 2021)", "key": {"GII.4 Saga P dimer": {"target": "GII.4 Saga P dimer (Norovirus GII.4 (human norovirus), UniProt B5BTR7)", "test": "Native MS, specific glycan binding to P dimer after reference protein correction", "set-up": "species or system human norovirus (hNoV)", "protocol": "(§1) Prior to MS analysis, purified P dimers were buffer exchanged to 150 mM ammonium acetate (Sigma-Aldrich, reagent grade ≥98%) at pH 7 via centrifugal filter units at 12,000× g at 4 °C (Vivaspin 500, MWCO 10000, Sartorius). Glycans for native MS analysis were mixed with 1 µM (per monomer) purified GII.4 Saga P dimer and 3 µM of the reference proteins at indicated concentrations. Native mass spectra were measured at room temperature in positive ion mode on a high mass modified LCT Premier mass spectrometer (Waters/Micromass, UK and MS Vision, the Netherlands) with a nano-ESI source. In house-made gold-coated electrospray capillaries were used for direct-sample infusion without any accessory chromatographic separation. The voltages and pressures were optimized for non-covalent protein complexes. The gas pressure used in the source hexapole was set between 6.5 and 6.8 × 10^−2 mbar argon optimized for minimal complex dissociation and the backing pressure of the source roughing pump was set between 7.0 and 8.5 mbar. Spectra were recorded with applied voltages for the capillary and cone of 1.20 kV and 240 V, respectively. Note that charge state distributions for P dimers were sometimes slightly shifted as was the degree of glycan clustering per charge state. These changes were highly variable and not quantifiable.\n(§2) For calibration of the raw data, a 25 mg/mL cesium iodide spectrum from the same day was used. MassLynx V4.1 (Waters, Manchester, UK) was used to assign peak series to protein species and to determine the mass after minimal smoothing. Furthermore, OriginPro 2016 SR2 (OriginLab, Northampton, MA, USA) was used for spectral deconvolution and curve fitting. Correction for nonspecific protein-ligand clustering was performed as described. Corrected peak areas were averaged and normalized to the free-protein signal. Data were based on at least three independent measurements. Python code Panda and Numpy package were used to calculate the specific binding of P dimers according to the glycan clustering ratio obtained from the selected reference protein candidates. Seaborn and matplotlib.pyplot package were imported into a python script to plot the results. The module of sklearn.linear model was applied for linear regression. The matplotlib and heatmap package were used to plot the heatmap.\nData from native ESI MS measurements were translated into dissociation constants (KD values). The detailed calculations were based on the equations listed below. A protein (P) and a glycan ligand (L) form a complex through non-covalent interactions leading to a reversible association described by (Equation (1)):(1) P+L⇌PL when equilibrium is reached, the KD can be calculated directly from the concentrations via the law of mass action (Equation (2)):(2) KD=[Pfree][Lfree]/[PL]\n(§3) Theoretically, the KD is calculated by measuring the concentration of the three components (Pfree, Lfree, PL) in solution. Usually, these values are only indirectly accessible because they require ligand titration up to binding saturation. However, native MS allows for the directly measurement of Pfree and PL, from which Lfree can be calculated using the input concentrations. In the present work, the non-covalent interaction was measured in the gas phase assuming identical ESI and detection efficiency for free and glycan-associated proteins, both for the analyte and the reference protein. […] For P dimers, the equations reflect glycan binding to the individual monomers assuming that binding sites on each monomer are equal and independent.\nUsing R described in Equation (3), the KD calculation can be re-written into Equation (4) with the known initial concentration of glycan ligand [L0] and protein [P0], adapted from Sun et al.:(3) R=PLequil∕Pequil=∑nA(PL^n+)∕n∕∑nA(P^n+)∕n (4) KD =L0−RP0/1+R/R […]"}, "[1]": {"target": "T1, ubiquitin from bovine erythrocytes (Ubq) (Bos taurus, UniProt P0CG53)", "T1 construct": "ubiquitin from bovine erythrocytes (Ubq, CAS number 75986-22-4); purchased Sigma-Aldrich (Merck, Germany); host or cells: bovine erythrocytes", "test": "Native MS glycan clustering to reference protein Ubq", "type": "binding", "conditions": "on Ubq", "protocol": "as §1, §2, §3\n(§4) Using R described in Equation (3), the KD calculation can be re-written into Equation (4) with the known initial concentration of glycan ligand [L0] and protein [P0], adapted from Sun et al.:(3) R=PLequil∕Pequil=∑nA(PL^n+)∕n∕∑nA(P^n+)∕n (4) KD =L0−RP0/1+R/R\n(§5) For the carbohydrate-binding experiments, it was essential to keep the initial protein concentrations and pH value constant during the analysis of the protein-carbohydrate solutions. While acidification occurs in any ESI droplet, the remaining solution in the capillary changes pH over time. Therefore, accumulated spectra were obtained within 10 min after the voltages were applied to minimize the influence of pH changes during the measurements. […]"}, "[2]": {"target": "T2, carbonic anhydrase isozyme II from bovine erythrocytes (CA) (Bos taurus, UniProt P00921)", "T2 construct": "carbonic anhydrase isozyme II from bovine erythrocytes (CA, CAS number 9001-03-0); purchased Sigma-Aldrich (Merck, Germany); host or cells: bovine erythrocytes", "T2 sequence (P00921 whole entry)": "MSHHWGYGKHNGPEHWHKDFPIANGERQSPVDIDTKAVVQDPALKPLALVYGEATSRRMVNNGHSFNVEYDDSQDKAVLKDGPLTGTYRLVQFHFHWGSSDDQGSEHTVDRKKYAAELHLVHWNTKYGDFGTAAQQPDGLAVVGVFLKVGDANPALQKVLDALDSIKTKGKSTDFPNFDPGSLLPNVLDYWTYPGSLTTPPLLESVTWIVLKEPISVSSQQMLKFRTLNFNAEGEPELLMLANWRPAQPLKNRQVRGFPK", "test": "Native MS glycan clustering to reference protein CA", "type": "binding", "conditions": "on CA", "protocol": "as §1, §2, §3, §4, §5"}}}
{"smiles": "CC(=O)N[C@H]1[C@@H](O[C@H]2[C@@H](O)[C@@H](CO)O[C@@H](O[C@H]3[C@H](O)[C@@H](CO)OC(O)[C@@H]3NC(C)=O)[C@@H]2O[C@@H]2O[C@@H](C)[C@@H](O)[C@@H](O)[C@@H]2O)O[C@H](CO)[C@H](O)[C@@H]1O", "note": "(some centres unmarked) [HBGA A, GalNAcα1-3(Fucα-2)Galβ1-3GlcNAc]", "values": [{"measurement": "Bound number of carbohydrates on Saga P dimer", "setting": "GII.4 Saga P dimer; ref. protein ADH, glycan 100 µM", "value": 0}, {"measurement": "Bound number of carbohydrates on Saga P dimer", "setting": "GII.4 Saga P dimer; ref. protein ADH, glycan 200 µM", "value": 0}, {"measurement": "Bound number of carbohydrates on Saga P dimer", "setting": "GII.4 Saga P dimer; ref. protein ADH, glycan 300 µM", "value": 0}, {"measurement": "Bound number of carbohydrates on Saga P dimer", "setting": "GII.4 Saga P dimer; ref. protein ADH, glycan 400 µM", "value": 0}, {"measurement": "Bound number of carbohydrates on Saga P dimer", "setting": "GII.4 Saga P dimer; ref. protein ADH, glycan 500 µM", "value": 0}, {"measurement": "Bound number of carbohydrates on Saga P dimer", "setting": "GII.4 Saga P dimer; ref. protein CA, glycan 100 µM", "value": 1}, {"measurement": "Bound number of carbohydrates on Saga P dimer", "setting": "GII.4 Saga P dimer; ref. protein CA, glycan 200 µM", "value": 1}, {"measurement": "Bound number of carbohydrates on Saga P dimer", "setting": "GII.4 Saga P dimer; ref. protein CA, glycan 300 µM", "value": 1}, {"measurement": "Bound number of carbohydrates on Saga P dimer", "setting": "GII.4 Saga P dimer; ref. protein CA, glycan 400 µM", "value": 1}, {"measurement": "Bound number of carbohydrates on Saga P dimer", "setting": "GII.4 Saga P dimer; ref. protein CA, glycan 500 µM", "value": 1}, {"measurement": "Bound number of carbohydrates on Saga P dimer", "setting": "GII.4 Saga P dimer; ref. protein Cyto c, glycan 100 µM", "value": 2}, {"measurement": "Bound number of carbohydrates on Saga P dimer", "setting": "GII.4 Saga P dimer; ref. protein Cyto c, glycan 200 µM", "value": 3}, {"measurement": "Bound number of carbohydrates on Saga P dimer", "setting": "GII.4 Saga P dimer; ref. protein Cyto c, glycan 300 µM", "value": 3}, {"measurement": "Bound number of carbohydrates on Saga P dimer", "setting": "GII.4 Saga P dimer; ref. protein Cyto c, glycan 400 µM", "value": 4}, {"measurement": "Bound number of carbohydrates on Saga P dimer", "setting": "GII.4 Saga P dimer; ref. protein Cyto c, glycan 500 µM", "value": 4}, {"measurement": "Bound number of carbohydrates on Saga P dimer", "setting": "GII.4 Saga P dimer; ref. protein GFP, glycan 100 µM", "value": 1}, {"measurement": "Bound number of carbohydrates on Saga P dimer", "setting": "GII.4 Saga P dimer; ref. protein GFP, glycan 200 µM", "value": 1}, {"measurement": "Bound number of carbohydrates on Saga P dimer", "setting": "GII.4 Saga P dimer; ref. protein GFP, glycan 300 µM", "value": 1}, {"measurement": "Bound number of carbohydrates on Saga P dimer", "setting": "GII.4 Saga P dimer; ref. protein GFP, glycan 400 µM", "value": 1}, {"measurement": "Bound number of carbohydrates on Saga P dimer", "setting": "GII.4 Saga P dimer; ref. protein GFP, glycan 500 µM", "value": 1}, {"measurement": "Bound number of carbohydrates on Saga P dimer", "setting": "GII.4 Saga P dimer; ref. protein LDH, glycan 100 µM", "value": 0}, {"measurement": "Bound number of carbohydrates on Saga P dimer", "setting": "GII.4 Saga P dimer; ref. protein LDH, glycan 200 µM", "value": 0}, {"measurement": "Bound number of carbohydrates on Saga P dimer", "setting": "GII.4 Saga P dimer; ref. protein LDH, glycan 300 µM", "value": 0}, {"measurement": "Bound number of carbohydrates on Saga P dimer", "setting": "GII.4 Saga P dimer; ref. protein LDH, glycan 400 µM", "value": 0}, {"measurement": "Bound number of carbohydrates on Saga P dimer", "setting": "GII.4 Saga P dimer; ref. protein LDH, glycan 500 µM", "value": 1}, {"measurement": "Bound number of carbohydrates on Saga P dimer", "setting": "GII.4 Saga P dimer; ref. protein Myo, glycan 100 µM", "value": 2}, {"measurement": "Bound number of carbohydrates on Saga P dimer", "setting": "GII.4 Saga P dimer; ref. protein Myo, glycan 200 µM", "value": 3}, {"measurement": "Bound number of carbohydrates on Saga P dimer", "setting": "GII.4 Saga P dimer; ref. protein Myo, glycan 300 µM", "value": 3}, {"measurement": "Bound number of carbohydrates on Saga P dimer", "setting": "GII.4 Saga P dimer; ref. protein Myo, glycan 400 µM", "value": 3}, {"measurement": "Bound number of carbohydrates on Saga P dimer", "setting": "GII.4 Saga P dimer; ref. protein Myo, glycan 500 µM", "value": 4}, {"measurement": "Bound number of carbohydrates on Saga P dimer", "setting": "GII.4 Saga P dimer; ref. protein Ubq, glycan 100 µM", "value": 2}, {"measurement": "Bound number of carbohydrates on Saga P dimer", "setting": "GII.4 Saga P dimer; ref. protein Ubq, glycan 200 µM", "value": 3}, {"measurement": "Bound number of carbohydrates on Saga P dimer", "setting": "GII.4 Saga P dimer; ref. protein Ubq, glycan 300 µM", "value": 4}, {"measurement": "Bound number of carbohydrates on Saga P dimer", "setting": "GII.4 Saga P dimer; ref. protein Ubq, glycan 400 µM", "value": 4}, {"measurement": "Bound number of carbohydrates on Saga P dimer", "setting": "GII.4 Saga P dimer; ref. protein Ubq, glycan 500 µM", "value": 4}, {"measurement": "Bound number of carbohydrates on Saga P dimer", "setting": "GII.4 Saga P dimer; ref. protein apo-TFF, glycan 100 µM", "value": 0}, {"measurement": "Bound number of carbohydrates on Saga P dimer", "setting": "GII.4 Saga P dimer; ref. protein apo-TFF, glycan 200 µM", "value": 0}, {"measurement": "Bound number of carbohydrates on Saga P dimer", "setting": "GII.4 Saga P dimer; ref. protein apo-TFF, glycan 300 µM", "value": 1}, {"measurement": "Bound number of carbohydrates on Saga P dimer", "setting": "GII.4 Saga P dimer; ref. protein apo-TFF, glycan 400 µM", "value": 1}, {"measurement": "Bound number of carbohydrates on Saga P dimer", "setting": "GII.4 Saga P dimer; ref. protein apo-TFF, glycan 500 µM", "value": 1}, {"measurement": "Glycan-Clustering Ratio R", "setting": "[1]; 100 µM glycan", "value": "0.06±0.03"}, {"measurement": "Glycan-Clustering Ratio R", "setting": "[1]; 200 µM glycan", "value": "0.04±0.01"}, {"measurement": "Glycan-Clustering Ratio R", "setting": "[1]; 300 µM glycan", "value": "0.13±0.01"}, {"measurement": "Glycan-Clustering Ratio R", "setting": "[1]; 400 µM glycan", "value": "0.18±0.01"}, {"measurement": "Glycan-Clustering Ratio R", "setting": "[1]; 500 µM glycan", "value": "0.10 ± 0.05"}, {"measurement": "Glycan-Clustering Ratio R", "setting": "[2]; 100 µM glycan", "value": "0.20±0.05"}, {"measurement": "Glycan-Clustering Ratio R", "setting": "[2]; 200 µM glycan", "value": "0.37±0.01"}, {"measurement": "Glycan-Clustering Ratio R", "setting": "[2]; 300 µM glycan", "value": "0.42±0.02"}, {"measurement": "Glycan-Clustering Ratio R", "setting": "[2]; 400 µM glycan", "value": "0.57±0.02"}, {"measurement": "Glycan-Clustering Ratio R", "setting": "[2]; 500 µM glycan", "value": "0.74 ± 0.07"}]}
